The text below walks through data of patent publication US20050180954A1, “Drug for treating bone disorders” (priority 1995, published 2005).

Format in all cases: cell-based, mouse
In assay [1] the test system is osteoclast like cells from bone marrow cells of mice of ddy strain. Kind of assay: Formation of osteoclast like cells from bone marrow cells of mice of ddy strain. The procedure: Bone marrow cells were prepared in accordance with the method by Takahashi et al (Takahashi, N. et al., Endocrinology, 122, 1373, 1988). Male mice of ddy strain of 7 weeks old were exanguinated to death under ether anesthesia and the femur and the tibia of hind legs were collected from each mouse. The connective tissues on the surfaces of the bones were carefully removed, and both ends of each bone were cut off with scissors. The bone marrow cells were suspended in α-Minimum Essential Medium (α-MEM, Nissui Pharmaceuticals Co.) containing 10% pre-colostrum new born calf serum (Mitsubishi Chemical, hereinafter referred to as “JCS” for short) and the suspension was flushed out through a 25 G needle attached to a syringe to collect the suspension in a centrifugal tube. The collected suspension was washed by centrifugation in the same medium at 2000 rpm at 4° C. for 5 minutes. The precipitated cells were dispersed in the above-mentioned medium and the washing by centrifugation was repeated twice, thereby preparing bone marrow cells. Murine IFN-α (hereinafter referred to as “MuIFNα” for short), Lot. B13010, 106 units/ml/vial (Calbiochem-Novabiochem International, San Diego, Calif.), murine IFN-β (hereinafter referred to as “MuIFNβ” for short), Lot M-0034, 10 units/ml/vial (Toray Industries, Inc.) and murine IFNγ (hereinafter referred to as “MuIFNγ” for short), Lot 254F3, 2.06×10^6 units/ml (Genentech, Calif.) were respectively dissolved in 10% JCS-containing α-MEM (Nissui Pharmaceuticals Co.) to the desired concentrations. Active vitamin D3 ([…], Wako Pure Chemical Industries, Ltd., hereinafter referred to as “Vit D3” for short) was dissolved in argon-saturated ethanol, and the obtained solution was diluted so as to attain the final ethanol concentration of 0.1% in all of the culture systems.
(§1) The number of viable bone marrow cells was counted using tripam blue dye exclusion test and the bone marrow cells were diluted with α-MEM containing 10% JCS, 10^−8M Vit D3, 10^−7 M dexamethasone to a population density of 1.5×10^6 cells/ml, followed by placing the resulting suspension in each well in 24-well plates in an amount of 0.45 ml/well. To each well, 50 μl of the medium containing varying concentration of IFN was added to make the volume to 0.5 ml/well and culturing was begun. At every three days, 0.4 ml of the culture medium was removed from each well and 0.4 ml of fresh medium (the above-mentioned medium containing the respective concentration of IFN) was added. On Day 8 from the beginning of the culturing, the medium was removed and the cells were fixed with mixed solution of ethyl alcohol and diethyl ether (1:1) and the cells were stained with tartrate resistant acid phosphatase (TRAP), followed by counting TRAP positive multinuclear cells with a phase contrast microscope. […] The inhibition effect of IFNγ was stronger than that of IFNβ. That is, the inhibition concentration IC50 of IFNγ was not more than 0.1 units/ml, and that of IFNβ was 0.2 units/ml.
The effects of the three murine IFNs, that is, MuIFNβ, γ and α in terms of abilities to inhibit formation of osteoclast like cells from bone marrow cells in mice of ddy strain were compared. The test was carried out as in Example 1. All of the murine IFNs inhibited the formation of osteoclast like cells, and the effect was strong in the order of γ, β and α. […] Thus, the activity of IFNα to inhibit formation of osteoclasts was about 1/20 of that of IFNβ and about not more than 1/100 of that of IFNγ.

In assay [2] the test system is MC3T3-E1 cells. Kind of assay: Proliferation of murine osteoblastic cells MC3T3-E1 (in vitro single administration). On the procedure: Murine osteoblast like cells MC3T3-E1 originated from C 57 BL/6 mouse (Kodama et al., Jap. J. Oral Biol., 23, 899, 1982) were washed with PBS(−) and the cells were dissociated by incubation in PBS(−) containing 0.1% pronase (Actinase E, Kaken Pharmaceuticals Co.), followed by dispersing the cells in α-MEM containing 10% JCS and 50 μg/ml of L-ascorbic acid (ASA). The ability to promote proliferation of cells was evaluated as follows. That is, MC3T3-E1 cells were placed in each well in 24-well plates (Corning) in an amount of 5000 cells/well. Then each IFN dilution was added to each well in an amount of 0.1 ml/well, and the culturing was begun. On Day 2, the medium was removed and the each IFN dilution was added in an amount of 0.5 ml/well (total amount of liquid: 0.5 ml/well). On Day 6, the medium was removed and the cells were washed with PBS(−) and a mixed enzyme solution of 0.1% pronase/0.1% collagenase was added to each well in an amount of 200 μl/well, followed by allowing to react at 37° C. for 15 minutes. Then α-MEM containing 10% fetal calf serum (Gibco, hereinafter referred to as “FCS” for short) was added in an amount of 300 μl/well to disperse the cells therein and the number of the cells was counted with a Coulter counter.

Assay [3] has as its system osteoclast like cells from bone marrow cells of mice of C 57 BL/6 strain. Kind of assay: Formation of osteoclast like cells from bone marrow cells of mice of C 57 BL/6 strain. Particulars: Example 2, C 57 BL/6 strain bone marrow cells. The procedure:
as §1
In place of mice of ddy strain, male mice of C 57 BL/6 of 7 weeks old were used. The mice were exanguinated to death under ether anesthesia and the femur and the tibia of hind legs were collected from each mouse. The connective tissues on the surfaces of the bones were carefully removed, and both ends of each bone were cut off with scissors. The bone marrow cells were suspended in α-MEM containing 10% JCS and the suspension was flushed out through a 25 G needle attached to a syringe to collect the suspension in a centrifugal tube. The collected suspension was washed by centrifugation in the same medium at 2000 rpm at 4° C. for 5 minutes. The precipitated cells were dispersed in the above-mentioned medium and the washing by centrifugation was repeated twice. Formation of osteoclast like cells was measured by the same method as in Example 1.

Assay [4] relates to MC3T3-E1 cells. Kind of assay: Quantification of calcium in calcified foci of MC3T3-E1. To be noted: MC3T3-E1, Day 14. On the procedure:
MC3T3-E1 cells were placed in each well in 24-well plates in an amount of 50,000 cells/well and cultured to confluency. The medium was removed and fresh α-MEM containing 10% JCS, 50 μg/ml of L-ascorbic acid and 10 mM β-glycerophosphate was added in an amount of 0.9 ml/well, followed by adding 0.1 ml/well of medium containing varying concentration of IFN. The medium was replaced with IFN-free medium every 4 days. On Day 14, the medium was removed and the cells were lightly washed with Hank's solution. Anhydrous ethanol was added in an amount of 1 ml/well and fixation was carried out at room temperature for 15 minuets. Then the anhydrous ethanol was replaced with fresh anhydrous ethanol in an amount of 1 ml/well and 5 minutes later, each well was dried in the air. Then 1N hydrochloric acid was added in an amount of 1 ml/well and extraction was carried out at room temperature for 30 minutes. The total contents of each well were transferred to an Eppendorf tube and centrifuged at 1800×g at 4° C. for 10 minutes The amount of calcium in the supernatant was measured by Calcium C Test Wako and the amount of inorganic phosphorus in the supernatant was measured by Phospha B Test Wako. […] The IC50 value was as low as about 10 units/ml (FIG. 5).

Assay [5] deals with MC3T3-E1 cells. Kind of assay: Mineralization of murine osteoblasts, Von Kossa stain (in vitro single administration). Particulars: Day 14. The procedure:
As the parameters for evaluation of differentiation ability, alkaline phosphatase (ALPase) and mineralization were employed. Detection of alkaline phosphatase which is a marker of differentiation of osteoblasts was carried out on Day 8 from the beginning of the culturing by staining method. Evaluation of mineralization was carried out as follows. That is, MC3T3-E1 cells were placed in each well of 24-well plates in an amount of 50,000 cells/ml (10 times in the case of anti-cell test in Example 3). On Day 4, after confirming that the cells sufficiently reached confluency, the medium was discarded and fresh α-MEM containing 10% JCS, 50 μg/ml of L-ascorbic acid and 10 mM β-glycerophosphate was added in an amount of 0.9 ml/well, followed by adding medium containing varying concentration of IFN. Four days later, the medium was replaced with IFN-free medium, and the medium was replaced with IFN-free medium every 4 days. On Day 14, Von Kossa stain was performed to visualize the calcified foci. Expression of alkaline phosphatase activity which is a differentiation marker is an indispensable step to the subsequent mineralization.

Consider “MuIFNγ: murine interferon γ, standard product Lot 254F3, provided by Genentech”, for which, in assay [1] (Example 1, Day 8, TRAP positive multinuclear cells), the “inhibition of formation of osteoclast like cells” value was “strongly inhibited formation of osteoclast like cells”. In addition, in assay [1] (Example 1, Vit D3 + dexamethasone, Day 8, TRAP positive multinuclear cells), the “inhibition concentration IC50 of formation of osteoclast like cells” value was “not more than 0.1 units/ml”. For the same substance, the “IC50 of inhibition of formation of osteoclast like cells” value in assay [1] (Example 8 comparison of three murine IFNs) is on record as “not more than 0.1 units/ml”. Besides, in the assay with MC3T3-E1 cells [2] (10,000 units/ml, cell count on Day 6), the “inhibition of proliferation of MC3T3-E1 cells” value is reported as “about 30%”. The “dose from which slight inhibition of proliferation was observed” value in the assay on MC3T3-E1 cells [2] (MC3T3-E1, Day 6) is on record as 1 unit/ml. The “inhibition of formation of osteoclast like cells” value in assay [3] is given as “strongly inhibited formation of osteoclast like cells”. For the same substance, the “IC50 of formation inhibition of osteoclast like cells” value in assay [3] (Day 8) was 1.5 units/ml. In addition, in the assay on MC3T3-E1 cells [4] (1000 units/ml), the “calcium deposition smaller than the control” value was 70%. Besides, in the assay on MC3T3-E1 cells [4], the “IC50 value of inhibition of calcium deposition” value is “about 10 units/ml”. Further, in the assay on MC3T3-E1 cells [5], the “concentration at which the inhibition effect on mineralization was expressed” value was 10 units/ml; the “influence on mineralization (calcified foci, Von Kossa stain)” value is “strong and dose dependent inhibition action on mineralization”. Further, in the assay on MC3T3-E1 cells [5] (Von Kossa), the “IC50 value of inhibition of mineralization” value is 3-4 units/ml.
